Entries after “also recorded” stand apart in the source; their conditions may differ.
What was measured:
Type in all cases: in vivo, human
panelists [1] = assay: Sensory properties in acidified water (pH 3.0) at 500 mg/L, 20 panelists; details: 10,000 ppm, acidified water pH 3.0, 20 panelists
panelists [2] = assay: as above; details: 500 ppm, acidified water pH 3.0, 20 panelists
Protocol: The sensory properties of Reb X were evaluated in acidified water (pH 3.0 by phosphoric acid) at 500 mg/L concentration by 20 panelists.

one experienced panelist = assay: Taste evaluation of Reb X against Reb A and Reb D, multi-sip and swallow taste method; details: for Taste Properties: 500 ppm in citric buffer (pH 3.22), room temperature
Protocol: The taste properties of a sample of Reb X were studied against Rebaudioside A (Reb A) and Rebaudioside D (Rb D) samples. Rb A was obtained from Cargill (lot #1040) and Reb-D was obtained from PureCircle (lot #11/3/08).
The samples were prepared at 500 ppm for sweetness evaluation by adding moisture compensated mass into a 100 mL sample of carbon-treated water and citric buffer solutions.
Citric buffer was prepared by mixing 1.171 g/L citric acid, 0.275 g/L sodium citrate and 0.185 g/L sodium benzoate with carbon-treated water, with a final pH of 3.22. The mixtures were moderately stirred at room temperature. The Reb X sample was then evaluated against the two control Reb A and Reb D samples in water and citric buffer at room temperature (RT) and at 4° C. in an ice bath by one experienced panelist for any tasting quality determinations using the controlled, multi-sip and swallow taste method shown below:
1. Take first sip (˜1.8 mL) of control and swallow. Wait for 15-25 sec, then take second sip of control and wait for 15-25 sec.
2. Take first sip of the experimental sample, wait for 15-25 sec, then take second sip. Compare to second sip of control.
3. Repeat steps #1 and #2 for the third and fourth sips of the control and experimental samples to confirm the initial finding.
The taste evaluation results of the Reb X samples against the control Reb A and Reb D samples at 500 ppm in citric buffer (CB) at 4° C. and RT are described in Table 4.

SMILES | Astringent taste: Number of panelists detected the attribute (panelists [1]) | Bitter taste: Number of panelists detected the attribute (panelists [1]) | Licorice taste: Number of panelists detected the attribute (panelists [1]) | Overall evaluation: Satisfactory (number of panelists of 20) (panelists [1]) | Quality of sweet taste: Clean (number of panelists of 20) (panelists [1]) | Sweet Aftertaste: Number of panelists detected the attribute (panelists [1]) | Astringent taste: Number of panelists detected the attribute (panelists [2]) | Bitter taste: Number of panelists detected the attribute (panelists [2]) | Licorice taste: Number of panelists detected the attribute (panelists [2]) | Overall evaluation: Satisfactory (number of panelists of 20) (panelists [2]) | Quality of sweet taste: Bitter aftertaste (number of panelists of 20) (panelists [2]) | Sweet Aftertaste: Number of panelists detected the attribute (panelists [2]) | Taste Properties (one experienced panelist) | Astringency, sweetness intense (depth) and bitterness notes (one experienced panelist; 500 ppm, citrate buffer system, compared with Reb A)
OC[C@H]1O[C@@](CO)(O[C@H]2O[C@H](CO)[C@@H](O)[C@H](O)[C@H]2O)[C@@H](O)[C@@H]1O [Sucrose] | 0 | 0 | 0 | (20 of 20) | Clean (20 | 0 |  |  |  |  |  |  |  | 
C=C1C[C@@]23CC[C@H]4[C@@](C)(CCC[C@@]4(C)C(=O)O[C@@H]4O[C@H](CO)[C@@H](O)[C@H](O)[C@H]4O)[C@@H]2CC[C@]1(O[C@@H]1O[C@H](CO)[C@@H](O)[C@H](O[C@@H]2O[C@H](CO)[C@@H](O)[C@H](O)[C@H]2O)[C@H]1O[C@@H]1O[C@H](CO)[C@@H](O)[C@H](O)[C@H]1O)C3 [Reb A, Rebaudioside A] |  |  |  |  |  |  | 20 | 20 | 20 | (1 of 20) | (20 of 20) | 20 | Delayed sweetness onset, significant lingering sweet aftertaste,; also recorded: licorice and bitter off-notes | 
C=C1C[C@@]23CC[C@H]4[C@@](C)(CCC[C@@]4(C)C(=O)O[C@@H]4O[C@H](CO)[C@@H](O)[C@H](O)[C@H]4O)[C@@H]2CC[C@]1(O[C@@H]1O[C@H](CO)[C@@H](O)[C@H](O)[C@H]1O[C@@H]1O[C@H](CO)[C@@H](O)[C@H](O)[C@H]1O)C3 [Stevioside] |  |  |  |  |  |  | 20 | 20 | 20 | (0 of 20) | (20 of 20) | 20 |  | 
C=C1C[C@@]23CC[C@H]4[C@@](C)(CCC[C@@]4(C)C(=O)O[C@@H]4O[C@H](CO)[C@@H](O)[C@H](O)[C@H]4O[C@@H]4O[C@H](CO)[C@@H](O)[C@H](O)[C@H]4O)[C@@H]2CC[C@]1(O[C@@H]1O[C@H](CO)[C@@H](O)[C@H](O[C@@H]2O[C@H](CO)[C@@H](O)[C@H](O)[C@H]2O)[C@H]1O[C@@H]1O[C@H](CO)[C@@H](O)[C@H](O)[C@H]1O)C3 [Reb D, Rebaudioside D] |  |  |  |  |  |  | 3 | 3 | 2 | (11 of 20) |  | 5 | Delayed sweetness onset, less sweetness linger as compared to Reb; also recorded: A, no bitter off-notes | did not have the astringency or sweetness intense (depth) and bitterness notes compared to that of the Reb A
